Results taken from patent US20070292351A1, “Assay for efficacy of histone deacetylase inhibitors” (Methylgene, Inc., priority 2006, published 2007).

Experiments:
HDAC activity = assay: Fluorescence-based whole cell HDAC enzyme assay in patients' peripheral white blood cells; assay type: in vivo, human
Protocol: At day 8 (72 h after the third dose), peripheral white blood cells were tested for HDAC activity by whole cell assay
(§1) Whole blood from either consenting healthy volunteers or consenting patients was centrifuged at 2500 rpm for 10 minutes at ambient temperature in a Sorvall RT-7 centrifuge (Mandel Scientific Co., Guelph, Ontario). Plasma was removed and buffy coat was collected. Five volumes of Erythrocyte Lysis Buffer (EL) (Qiagen Canada Inc., Mississauga, Ontario) were added into buffy coat. Buffy coat was incubated on ice for 20 minutes before it was centrifuged at 400 g for 10 minutes at 4° C. Supernatant was removed and buffy coat was washed twice with EL buffer and re-centrifuged. Buffy coat was resuspended in RPMI media and cells were counted with trypan blue exclusion. To isolate PBMCs, buffy coat cells were centrifuged over Lymphoprep (Axis-Shield, 1114544), and any remaining erythrocytes in the sample were lysed by treatment with EL lysis buffer (Qiagen, 79217). The cell pellets are washed and then re-suspended in RPMI containing 10% FBS.
Human patients with either solid tumors or leukemia/MDS diseases were enrolled in phase I studies with consensus forms. MGCD0103 were dosed into patients orally every other day (day 1, day 3, day 5 […]). Blood samples were withdrawled by using the Vacutainer sodium-heparin blood collection tubes (Becton Dickinson Laboratories, Franklin Lakes, N.J.) and shipped to the test site within 24 hours on ice-pack. Baseline samples were drawn immediately prior to the first drug dose, while the 24 hour samples were drawn at 24 hours post the first drug dose. The 48 hours samples were drawn at 48 hours post the first dose. For the 1 week samples, blood was drawn 72 hours after day 5 dose (3 accumulated doses during week 1).
Freshly trypsinized cells or cells in suspension were dispensed in 96-well black Costar E1A/RIA plates (Corning Inc., Corning, N.Y.). We typically used 5×10^4 to 2×10^5 cells per well, and 8×10^5 white blood (mouse or human) cells/per well. Small molecule substrate Boc-Lys(Ac)-AMC (Bachem Biosciences Inc., King of Prussia, Philadelphia) were added to cell suspension with the final concentration of 300 uM. Cells were placed in a 37° C. incubator with 5% CO2 for 90 minutes (in the case of white blood cells, we incubated for 60 min). Fluorescence was read immediately before adding stop mixture to get a background. […] Fluorescence was developed for 15 minutes at 37° C. and read in a fluorometer (SPECTRAMAX GeminiXS, Molecular Devices, Sunnyvale, Calif.) with an excitation wavelength at 360 nm, emission at 470 nm, and a cutoff of 435 nm.

Jurkat-T leukemic cells = assay: RT-PCR of MT3 transcription in Jurkat-T cells; assay type: cell-based, human; details: 16 h, semi-quantitative RT-PCR (FIG. 2)
Protocol: RNA was extracted from 8×10^6 cells using the Qiagen RNeasy Mini kit (cat#74106, Qiagen, Missisauga Ont.) following the manufacturer's instructions. RT reaction was performed using the Expand Reverse Transcriptase kit from Roche (Cat#1 785 834 Roche Applied Biosciences, Laval, Que) with 1 μg total RNA together with 1 μl oligo(dT) primer (cat#y01212, Invitrogen-Canada, Burlington, Ont). cDNA was synthesized using an Eppendorf Mastercycler gradient PCR apparatus (Brinkmann Instruments Canada LTD., Mississauga, Ontario), using a two cycle protocol. For the 1st cycle reaction mixture (0.5 μl H2O, 4 μl of 5× Buffer, 2 μl DTT, 2 ul of 10 mM dNTPs, 0.5 μl RNAsin (cat#N211B, Promega, Fisher Scientific, Whitby, Ont.) and […] of the Expand Reverse Transcriptase (Cat#1785834, Roche, Laval, Quebec)) was incubated at 65° C. for 10 minutes and then set on ice. A second cycle was performed at 42° C. for 1 hour. The resulting cDNA products were kept at 4° C. until used.
One ul of the resulting cDNA was used for every amplification reaction with 18.9 ul H2O, 1.25 ul of 10 mM dNTPs, 0.5 ul of each primer pair, 2.5 ul of 10× Buffer. The PCR reaction was carried out in an Eppendorf Mastercycler gradient. The sequences of the primers used for the amplification of selected biomarkers, as well as the details of the PCR reaction cycles are featured below. […]

[1] = tested on: peripheral white blood cells from healthy volunteers; assay: Semi-quantitative PCR of MT3 in peripheral white blood cells treated ex vivo; assay type: cell-based, human; details: 24 hr or 48 hr (FIG. 6)
Protocol: Peripheral white blood cells were isolated from healthy volunteers and treated ex vivo with MGCD0103 at indicated doses for 24 hr or 48 hr. RNA was extracted to monitor MT3 mRNA level by conventional semi-quantitative PCR (normalized to β-actin).
as §1
RNA was extracted from 8×10^6 cells using the Qiagen RNeasy Mini kit (cat#74106, Qiagen, Missisauga Ont.) following the manufacturer's instructions. […]

## Nc1ccccc1NC(=O)c1ccc(CNc2nccc(-c3cccnc3)n2)cc1 [MGCD0103]
HDAC activity; AML Patient A with clinical response (FIG. 9)
  inhibition of HDAC activity in peripheral white cells: Time-dependent inhibition
HDAC activity; AML patient (Patient A) with clinical response, day 8
  HDAC inhibition: 68%
HDAC activity; patients with solid tumors, one week (three doses per week), day 8 (FIG. 7)
  HDAC inhibition in vivo in peripheral white blood cells: dose-dependent HDAC inhibition
HDAC activity; three other AML patients (no response), day 8
  average HDAC inhibition: < 5%
Jurkat-T leukemic cells
  Dose-dependent induction of MT3 transcription: Dose-dependent induction
[1]
  Induction of MT3 transcription ex vivo: time-dependent and dose-dependent
